Assay results as given in patent US9593122B2, “Substituted pyrazolylpyrazole derivative and use of same as herbicide” (KYOYU AGRI CO., LTD., priority 2013, dated 2017).

Tests used:
Assay in all cases: Paddy herbicidal activity test
Assay type in all cases: in vivo
Echinochloa crus-galli = settings: irrigated paddy pot, treated at 3.5 leaf stage of Echinochloa crus-galli, 30 days
Experimental: (§1) Rice paddy soil was filled into a 1/10000 are pot followed by the addition of suitable amounts of water and chemical fertilizer, kneading, seeding with Echinochloa crus-galli, Monochoria vaginalis and Scirpus juncoides and maintaining in an irrigated state at a water depth of 3 cm.
(§2) Wettable powder of Target Compound (I) shown in Table 1 prepared in compliance with the preparation examples were diluted with a suitable amount of water, rice plants in the 2.0 leaf stage were transplanted during 3.5 leaf stage of Echinochloa crus-galli, and treated by dropping in chemical in the prescribed amount per are using a pipette.
(§3) After treating for 30 days in a glass greenhouse at an average atmospheric temperature of 30° C., the herbicidal efficacy thereof was investigated.
(§4) Evaluation of herbicidal efficacy was carried out by comparing growth inhibition rate (%) with an untreated group, while evaluation of phytotoxicity was carried out by comparing growth inhibition rate (%) with the state of a complete eradication group, and were evaluated at 11 levels indicated below.

Monochoria vaginalis = settings: irrigated paddy pot, 30 days
Experimental: as §1, §2, §3, §4

Scirpus juncoides = settings: irrigated paddy pot, 30 days
Experimental: as §1, §2, §3, §4

C=CCCNc1c(C#N)cnn1-c1nn2c(c1Br)CCCC2 [Compound 42]
Echinochloa crus-galli herbicidal efficacy (growth inhibition level) (Echinochloa crus-galli; 1g a.i./10a): 8 (8: 80% to less than 90%)
Echinochloa crus-galli herbicidal efficacy (growth inhibition level) (Echinochloa crus-galli; 5g a.i./10a): 9 (9: 90% to less than 100%)
Monochoria vaginalis herbicidal efficacy (growth inhibition level) (Monochoria vaginalis; 1g a.i./10a): 7 (7: 70% to less than 80%)
Monochoria vaginalis herbicidal efficacy (growth inhibition level) (Monochoria vaginalis; 5g a.i./10a): 8 (8: 80% to less than 90%)
Scirpus juncoides herbicidal efficacy (growth inhibition level) (Scirpus juncoides; 1g a.i./10a): 8 (8: 80% to less than 90%)
Scirpus juncoides herbicidal efficacy (growth inhibition level) (Scirpus juncoides; 5g a.i./10a): 8 (8: 80% to less than 90%)

N#Cc1cnn(-c2nn3c(c2Br)CCCC3)c1NC/C=C\Cl [Compound 45]
Echinochloa crus-galli herbicidal efficacy (growth inhibition level) (Echinochloa crus-galli; 1g a.i./10a): 9 (9: 90% to less than 100%)
Echinochloa crus-galli herbicidal efficacy (growth inhibition level) (Echinochloa crus-galli; 5g a.i./10a): 9 (9: 90% to less than 100%)
Monochoria vaginalis herbicidal efficacy (growth inhibition level) (Monochoria vaginalis; 1g a.i./10a): 9 (9: 90% to less than 100%)
Monochoria vaginalis herbicidal efficacy (growth inhibition level) (Monochoria vaginalis; 5g a.i./10a): 9 (9: 90% to less than 100%)
Scirpus juncoides herbicidal efficacy (growth inhibition level) (Scirpus juncoides; 1g a.i./10a): 9 (9: 90% to less than 100%)
Scirpus juncoides herbicidal efficacy (growth inhibition level) (Scirpus juncoides; 5g a.i./10a): 9 (9: 90% to less than 100%)

CC(C)=CCNc1c(C#N)cnn1-c1nn2c(c1Br)CCCC2 [Compound 48]
Echinochloa crus-galli herbicidal efficacy (growth inhibition level) (Echinochloa crus-galli; 1g a.i./10a): 8 (8: 80% to less than 90%)
Echinochloa crus-galli herbicidal efficacy (growth inhibition level) (Echinochloa crus-galli; 5g a.i./10a): 9 (9: 90% to less than 100%)
Monochoria vaginalis herbicidal efficacy (growth inhibition level) (Monochoria vaginalis; 1g a.i./10a): 8 (8: 80% to less than 90%)
Monochoria vaginalis herbicidal efficacy (growth inhibition level) (Monochoria vaginalis; 5g a.i./10a): 10 (10: 100%)
Scirpus juncoides herbicidal efficacy (growth inhibition level) (Scirpus juncoides; 1g a.i./10a): 7 (7: 70% to less than 80%)
Scirpus juncoides herbicidal efficacy (growth inhibition level) (Scirpus juncoides; 5g a.i./10a): 8 (8: 80% to less than 90%)

C=CCN(C(=O)C(F)(F)F)c1c(C#N)cnn1-c1nn2c(c1Br)CCCC2 [Compound 49]
Echinochloa crus-galli herbicidal efficacy (growth inhibition level) (Echinochloa crus-galli; 1g a.i./10a): 8 (8: 80% to less than 90%)
Echinochloa crus-galli herbicidal efficacy (growth inhibition level) (Echinochloa crus-galli; 5g a.i./10a): 9 (9: 90% to less than 100%)
Monochoria vaginalis herbicidal efficacy (growth inhibition level) (Monochoria vaginalis; 1g a.i./10a): 7 (7: 70% to less than 80%)
Monochoria vaginalis herbicidal efficacy (growth inhibition level) (Monochoria vaginalis; 5g a.i./10a): 9 (9: 90% to less than 100%)
Scirpus juncoides herbicidal efficacy (growth inhibition level) (Scirpus juncoides; 1g a.i./10a): 8 (8: 80% to less than 90%)
Scirpus juncoides herbicidal efficacy (growth inhibition level) (Scirpus juncoides; 5g a.i./10a): 9 (9: 90% to less than 100%)

C=CCCN(C(=O)C(F)(F)F)c1c(C#N)cnn1-c1nn2c(c1Br)CCCC2 [Compound 50]
Echinochloa crus-galli herbicidal efficacy (growth inhibition level) (Echinochloa crus-galli; 1g a.i./10a): 9 (9: 90% to less than 100%)
Echinochloa crus-galli herbicidal efficacy (growth inhibition level) (Echinochloa crus-galli; 5g a.i./10a): 10 (10: 100%)
Monochoria vaginalis herbicidal efficacy (growth inhibition level) (Monochoria vaginalis; 1g a.i./10a): 7 (7: 70% to less than 80%)
Monochoria vaginalis herbicidal efficacy (growth inhibition level) (Monochoria vaginalis; 5g a.i./10a): 9 (9: 90% to less than 100%)
Scirpus juncoides herbicidal efficacy (growth inhibition level) (Scirpus juncoides; 1g a.i./10a): 7 (7: 70% to less than 80%)
Scirpus juncoides herbicidal efficacy (growth inhibition level) (Scirpus juncoides; 5g a.i./10a): 8 (8: 80% to less than 90%)

C=C(Cl)CN(C(=O)C(F)(F)F)c1c(C#N)cnn1-c1nn2c(c1Br)CCCC2 [Compound 51]
Echinochloa crus-galli herbicidal efficacy (growth inhibition level) (Echinochloa crus-galli; 1g a.i./10a): 9 (9: 90% to less than 100%)
Echinochloa crus-galli herbicidal efficacy (growth inhibition level) (Echinochloa crus-galli; 5g a.i./10a): 9 (9: 90% to less than 100%)
Monochoria vaginalis herbicidal efficacy (growth inhibition level) (Monochoria vaginalis; 1g a.i./10a): 8 (8: 80% to less than 90%)
Monochoria vaginalis herbicidal efficacy (growth inhibition level) (Monochoria vaginalis; 5g a.i./10a): 8 (8: 80% to less than 90%)
Scirpus juncoides herbicidal efficacy (growth inhibition level) (Scirpus juncoides; 1g a.i./10a): 8 (8: 80% to less than 90%)
Scirpus juncoides herbicidal efficacy (growth inhibition level) (Scirpus juncoides; 5g a.i./10a): 8 (8: 80% to less than 90%)

N#Cc1cnn(-c2nn3c(c2Br)CCCC3)c1N(C/C=C\Cl)C(=O)C(F)(F)F [Compound 53]
Echinochloa crus-galli herbicidal efficacy (growth inhibition level) (Echinochloa crus-galli; 1g a.i./10a): 9 (9: 90% to less than 100%)
Echinochloa crus-galli herbicidal efficacy (growth inhibition level) (Echinochloa crus-galli; 5g a.i./10a): 10 (10: 100%)
Monochoria vaginalis herbicidal efficacy (growth inhibition level) (Monochoria vaginalis; 1g a.i./10a): 7 (7: 70% to less than 80%)
Monochoria vaginalis herbicidal efficacy (growth inhibition level) (Monochoria vaginalis; 5g a.i./10a): 8 (8: 80% to less than 90%)
Scirpus juncoides herbicidal efficacy (growth inhibition level) (Scirpus juncoides; 1g a.i./10a): 7 (7: 70% to less than 80%)
Scirpus juncoides herbicidal efficacy (growth inhibition level) (Scirpus juncoides; 5g a.i./10a): 8 (8: 80% to less than 90%)
